Data as given in PubChem BioAssay AID1919009 (Molecular Pharmacology Branch, DTP, NCI, 2023).
Values belong to the molecule of their own block, whether it stands above or below them.

Tested on: K24384-001-R-PDC complex spheroid growth
Test: Anticancer human tumor K24384-001-R-PDC patient-derived pancreatic adenocarcinoma cell line growth inhibition [AhR]
Settings: for IC50: curve of first compound; for viability, T/C: stronger effect = lower value
In short: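 Agents were dosed in half-log steps down from roughly clinical Cmax, or from 10 microM where Cmax was unknown, alone and with AhR antagonists. Read-out: percent test/control growth of tumor spheroids containing HUVEC and MSC stromal cells.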

[1] = second compound 0.1 µM, first compound 0.0316 µM
[2] = second compound 0.1 µM, first compound 0.1 µM
[3] = second compound 0.316 µM, first compound 0.0316 µM
[4] = second compound 0.316 µM, first compound 0.1 µM
[5] = second compound 1 µM, first compound 0.0316 µM
[6] = second compound 1 µM, first compound 0.1 µM
[7] = second compound 3.16 µM, first compound 0.0316 µM
[8] = second compound 3.16 µM, first compound 0.1 µM
[9] = second compound 10 µM, first compound 0.0316 µM
[10] = second compound 10 µM, first compound 0.1 µM
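For viability, T/C in this document: percent of DMSO vehicle-treated spheroid viability set as 100%.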

IC50 (second compound 0.1 µM): > 100 nM
IC50 (second compound 0.316 µM): > 100 nM
IC50 (second compound 1 µM): > 100 nM
IC50 (second compound 3.16 µM): > 100 nM
IC50 (second compound 10 µM): < 0.316 nM
Compound: Cn1ncnc1C1c2n[nH]c(=O)c3cc(F)cc(c23)NC1c1ccc(F)cc1 (stereo not given) + Cc1cncc(-c2nc(NCCc3c[nH]c4ccccc34)c3ncn(C(C)C)c3n2)c1
viability, T/C (second compound 0.1 µM, first compound 0.000316 µM): 94.1%
viability, T/C (second compound 0.1 µM, first compound 0.001 µM): 93.8%
viability, T/C (second compound 0.1 µM, first compound 0.00316 µM): 99.8%
viability, T/C (second compound 0.1 µM, first compound 0.01 µM): 107%
viability, T/C [1]: 94.7%
viability, T/C [2]: 76.3%
viability, T/C (second compound 0.316 µM, first compound 0.000316 µM): 98.1%
viability, T/C (second compound 0.316 µM, first compound 0.001 µM): 108%
viability, T/C (second compound 0.316 µM, first compound 0.00316 µM): 104%
viability, T/C (second compound 0.316 µM, first compound 0.01 µM): 92.2%
viability, T/C [3]: 99.4%
viability, T/C [4]: 71.8%
viability, T/C (second compound 1 µM, first compound 0.000316 µM): 104%
viability, T/C (second compound 1 µM, first compound 0.001 µM): 110%
viability, T/C (second compound 1 µM, first compound 0.00316 µM): 105%
viability, T/C (second compound 1 µM, first compound 0.01 µM): 101%
viability, T/C [5]: 74.3%
viability, T/C [6]: 66.8%
viability, T/C (second compound 3.16 µM, first compound 0.000316 µM): 101%
viability, T/C (second compound 3.16 µM, first compound 0.001 µM): 86.7%
viability, T/C (second compound 3.16 µM, first compound 0.00316 µM): 104%
viability, T/C (second compound 3.16 µM, first compound 0.01 µM): 64.8%
viability, T/C [7]: 69.8%
viability, T/C [8]: 71.5%
viability, T/C (second compound 10 µM, first compound 0.000316 µM): 15.3%
viability, T/C (second compound 10 µM, first compound 0.001 µM): 12%
viability, T/C (second compound 10 µM, first compound 0.00316 µM): 14.2%
viability, T/C (second compound 10 µM, first compound 0.01 µM): 11.5%
viability, T/C [9]: 12.1%
viability, T/C [10]: 14.5%

IC50 (second compound 0.1 µM): 2330 nM
IC50 (second compound 0.316 µM): 2320 nM
IC50 (second compound 1 µM): 2370 nM
IC50 (second compound 3.16 µM): 1510 nM
IC50 (second compound 10 µM): < 31.6 nM
Compound: NS(=O)(=O)OCC1CC(n2ccc3c(NC4CCc5ccccc54)ncnc32)CC1O (stereo not given) + Cc1cncc(-c2nc(NCCc3c[nH]c4ccccc34)c3ncn(C(C)C)c3n2)c1
viability, T/C [1]: 130%
viability, T/C [2]: 150%
viability, T/C (second compound 0.1 µM, first compound 0.316 µM): 67.3%
viability, T/C (second compound 0.1 µM, first compound 1 µM): 107%
viability, T/C (second compound 0.1 µM, first compound 3.16 µM): 29.7%
viability, T/C (second compound 0.1 µM, first compound 10 µM): 29.1%
viability, T/C [3]: 141%
viability, T/C [4]: 161%
viability, T/C (second compound 0.316 µM, first compound 0.316 µM): 56.1%
viability, T/C (second compound 0.316 µM, first compound 1 µM): 124%
viability, T/C (second compound 0.316 µM, first compound 3.16 µM): 24%
viability, T/C (second compound 0.316 µM, first compound 10 µM): 23.6%
viability, T/C [5]: 167%
viability, T/C [6]: 154%
viability, T/C (second compound 1 µM, first compound 0.316 µM): 62%
viability, T/C (second compound 1 µM, first compound 1 µM): 84.6%
viability, T/C (second compound 1 µM, first compound 3.16 µM): 27.9%
viability, T/C (second compound 1 µM, first compound 10 µM): 27%
viability, T/C [7]: 132%
viability, T/C [8]: 153%
viability, T/C (second compound 3.16 µM, first compound 0.316 µM): 59.8%
viability, T/C (second compound 3.16 µM, first compound 1 µM): 86.4%
viability, T/C (second compound 3.16 µM, first compound 3.16 µM): 20.4%
viability, T/C (second compound 3.16 µM, first compound 10 µM): 20.6%
viability, T/C [9]: 27.1%
viability, T/C [10]: 15.2%
viability, T/C (second compound 10 µM, first compound 0.316 µM): 10.5%
viability, T/C (second compound 10 µM, first compound 1 µM): 11.1%
viability, T/C (second compound 10 µM, first compound 3.16 µM): 5.02%
viability, T/C (second compound 10 µM, first compound 10 µM): 5.87%
